This is an account of results in publication PMC11483378, “Triazole-Based Thiamine Analogues as Inhibitors of Thiamine Pyrophosphate-Dependent Enzymes: 1,3-Dicarboxylate for Metal Binding” (ACS Omega, 2024).

Like-named read-outs stand apart in the source and are kept apart here.

The nature of series [1]: PAMPA (parallel artificial membrane permeability assay). The format is in vitro ADME. To be noted: for Papp at 10 h, 500 µM / Fa (fraction absorbed): compounds at 500 µM, 5% DMSO in PBS pH 7.4, 10 hours, room temperature; for Papp at 10 h, 500 µM: read-out: PAMPA log Pe (converted). The protocol:
PAMPA – methods and results (Table S2)
PAMPA was carried out in 96-well microtiter filter plates obtained from Millipore as described1 with some modifications. Each well of the filter plate was impregnated with 15 µL of 5% hexadecane dissolved in hexane (i.e. total amount of hexadecane: 0.75 µL) for at least 10 minutes in ventilated environment to allow for complete evaporation of hexane. Donor compartments were filled with 200 µL compound-containing donor solutions of compounds dissolved in 5% DMSO, phosphate buffered saline PBS) and connected to acceptor plate prefilled with buffer (5% DMSO in PBS, pH 7.4). The resulting sandwich was incubated at room temperature under gentle shaking and wrapped in wet paper towels to avoid evaporation. After 10 hours, the sandwich was disassembled and the solutions in the acceptor and donor were transferred to a disposable UV-transparent plate. UV absorption was measured at wavelengths between 220 and 340 nm using a microplate reader (CLARIOstar).
Compounds were tested at 500 µM. Calibration to determine concentration of compounds were performed with varying compound concentrations in buffer (5% DMSO in PBS).
The artificial membrane permeability is expressed as fraction absorbed (Fa%)2 or log Pe (log of the effective permeability)1. LogD values at pH 7.4 were calculated using MarvinSketch.
Fa% = 100 ∙CA ∙VA / CD0 ∙ VD where: CA = final drug concentration in the acceptor well (µM)
VA = volume in the acceptor well (cm3)
CD0 = Initial drug concentration in the donor well (µM)
VD = volume in the donor well (cm3) log P (cm/s) = log -ln 1-CA/Cequilibrium
S = surface area (cm2), typically 0.268 cm2
Cequilibrium = theoretical equilibrium concentration = [CD ∙VD+CA ∙VA] / [VD+VA] where: CD = final drug concentration in the donor well (µM)
CA = final drug concentration in the acceptor well (µM)
Table S2. Permeability data.
Compounds Fa (%) PAMPA log Pe (cm/s) cLogD (pH = 7.4)

The target in series [2] is T1, Porcine PDH E1 (Sus scrofa, UniProt P29804).
T1 sequence (P29804 31-390): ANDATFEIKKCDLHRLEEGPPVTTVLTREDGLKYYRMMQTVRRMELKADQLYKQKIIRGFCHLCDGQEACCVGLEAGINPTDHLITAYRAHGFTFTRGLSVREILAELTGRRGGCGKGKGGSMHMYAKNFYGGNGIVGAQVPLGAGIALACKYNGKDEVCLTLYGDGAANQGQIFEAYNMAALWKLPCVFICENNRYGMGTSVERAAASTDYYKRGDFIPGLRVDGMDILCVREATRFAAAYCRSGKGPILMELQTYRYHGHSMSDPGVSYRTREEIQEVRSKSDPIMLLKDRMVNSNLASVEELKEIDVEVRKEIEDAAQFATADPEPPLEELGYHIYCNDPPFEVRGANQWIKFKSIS
On the set-up: method as in PMID 37201323. Particulars: assay conditions of previous study; cited from earlier work.

For series [3], the target named is T2, S. cerevisiae PDC (Saccharomyces cerevisiae, UniProt P06169).
T2 construct: purchased Sigma
T2 sequence (P06169 2-563 limits assumed): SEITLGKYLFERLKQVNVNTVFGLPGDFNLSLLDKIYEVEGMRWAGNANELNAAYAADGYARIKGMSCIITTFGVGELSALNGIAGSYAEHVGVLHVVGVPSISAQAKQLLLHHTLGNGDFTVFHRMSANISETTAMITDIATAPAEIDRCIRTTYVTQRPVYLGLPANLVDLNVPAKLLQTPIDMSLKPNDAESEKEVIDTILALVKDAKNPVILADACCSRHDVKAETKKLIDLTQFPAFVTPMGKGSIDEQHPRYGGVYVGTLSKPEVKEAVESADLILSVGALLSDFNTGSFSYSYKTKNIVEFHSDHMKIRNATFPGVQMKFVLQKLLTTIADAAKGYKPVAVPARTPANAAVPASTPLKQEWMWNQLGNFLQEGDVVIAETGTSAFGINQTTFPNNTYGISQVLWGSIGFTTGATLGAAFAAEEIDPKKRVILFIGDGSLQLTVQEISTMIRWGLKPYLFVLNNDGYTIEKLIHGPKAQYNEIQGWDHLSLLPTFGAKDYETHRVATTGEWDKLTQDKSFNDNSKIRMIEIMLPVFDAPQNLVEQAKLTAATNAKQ
Set-up: method as in PMID 37201323. Particulars: assay conditions of previous study; cited from earlier work.

Series [4] deals with A. viridans PO (Aerococcus viridans, UniProt A9X9K8). On the set-up: method as in PMID 37201323. To be noted: assay conditions of previous study; cited from earlier work.
In series [5] the target is T3, E. coli OGDH E1 (Escherichia coli, UniProt P0AFG3). On the set-up: method as in PMID 37201323. To be noted: assay conditions of previous study; cited from earlier work.
Series [6] deals with T1, Porcine PDH E1. Description: Porcine PDH E1 inhibitory activity assay (DCPIP reduction). Type of series: biochemical. On the procedure:
Porcine PDH E1 was purchased from Sigma. Porcine PDH E1 activity was determined by monitoring 2,6-dichlorophenolindophenol (DCPIP) reduction at 600 nm using a microplate reader (CLARIOstar) and conducted as described[5] with some modifications. […] The reaction buffer (50 mM KH2PO4 and 1 mM MgCl2, pH 7) contained thiamine pyrophosphate (TPP) at specified concentrations, 0.25 mM DCPIP, and 2 mg/mL porcine PDH E1. The reaction mixture was preincubated at 37 °C with the inhibitor for 30 min, and then the reaction was initiated by adding pyruvate to a final concentration of 50 mM. To determine the half-maximal inhibitory concentration (IC50), the TPP concentration was set at 60 μM with varying inhibitor concentrations. Specific activity was calculated using the molar extinction coefficient of DCPIP, 21 mM^–1 cm^–1.[28] The IC50 values were calculated from nonlinear regression curve fitting using GraphPad Prism.
Porcine PDH E1 inhibitory activity assay. Porcine PDH E1 was purchased from Sigma. Porcine PDH E1 activity was determined by monitoring 2,6-dichlorophenolindophenol (DCPIP) reduction at 600 nm using a microplate reader (CLARIOstar) and conducted as described3 with some modifications. The […]
buffer (50 mM KH2PO4 and 1 mM MgCl2, pH 7) contained thiamine pyrophosphate (TPP) at specified concentrations, 0.25 mM 2,6-dichlorophenolindophenol (DCPIP), and 2 mg/mL porcine PDH E1. The reaction mixture was preincubated at 37 °C with the inhibitor for 30 min, then reaction was initiated by adding pyruvate to a final concentration of 50 mM. To determine the half-maximal inhibitory concentration (IC50), TPP concentration was set at 60 µM with varying inhibitor concentrations. […]
values were calculated from non-linear regression curve fitting using GraphPad Prism. […]

The target of series [7] is T3, E. coli OGDH E1. The series is described as follows: E. coli OGDH E1 inhibitory activity assay (DCPIP reduction). The format is biochemical. To be noted: compound at 200 μM, assay conditions of previous study. On the procedure: E. coli OGDH E1 was from material donated by R. Frank. E. coli OGDH E1 activity was determined by monitoring DCPIP reduction at 600 nm using a microplate reader (CLARIOstar) and conducted as described[5] with some modifications. […] The reaction buffer (50 mM KH2PO4 and 2 mM MgCl2, pH 7) contained TPP at specified concentrations, 0.5 mM DCPIP, and 6.7 mg/mL E. coli OGDH E1. The reaction mixture was preincubated at 37 °C with the inhibitor for 60 min, and then the reaction was initiated by adding α-ketoglutarate to a final concentration of 10 mM. To determine the IC50, the TPP concentration was set at 60 μM with varying inhibitor concentrations. Specific activity was calculated using the molar extinction coefficient of DCPIP, 21 mM^–1 cm^–1.[28] The IC50 values were calculated from nonlinear regression curve fitting using GraphPad Prism.
(§1) Enzyme inhibitory activity assays – methods and results (Figures S1-4) […]
(§2) The compound […]
E. coli OGDH E1 inhibitory activity assay. E. coli OGDH E1 was from material donated by R. Frank. E. coli OGDH E1 activity was determined by monitoring DCPIP reduction at 600 nm using a microplate reader (CLARIOstar) and conducted as described3 with some modifications. The percentage inhibition of compounds against E. coli OGDH E1 was assayed at 250 μM. The reaction buffer (50 mM KH 2PO4 and 2 mM MgCl2, pH 7) contained TPP at specified concentrations, 0.5 mM DCPIP, and 6.7 mg/ml E. coli OGDH E1. The reaction mixture was preincubated at 37 °C with the inhibitor for 60 min, then reaction was initiated by adding α-ketoglutarate to a final concentration of 10 mM. To determine the IC50, TPP concentration was set at 60 µM with varying inhibitor concentrations. Specific activity was […]

Series [8] is described as follows: Solubility in aqueous buffer / enzyme assay conditions. Type of series: physicochemical.
Substrate in series [9]: Cc1ncc(C[n+]2csc(CCO[P@](=O)(O)OP(=O)(O)O)c2C)c(N)n1
The series is described as follows: S. cerevisiae PDC inhibitory activity assay (DCPIP reduction). The format is biochemical, Saccharomyces cerevisiae. To be noted: 37.0 °C. The protocol: S. cerevisiae PDC was purchased from Sigma. S. cerevisiae PDC activity was determined by monitoring DCPIP reduction at 600 nm using a microplate reader (CLARIOstar) and conducted as described[5] with some modifications. […] The reaction buffer (50 mM KH2PO4 and 1 mM MgCl2, pH 7) contained TPP at specified concentrations, 0.27 mM DCPIP, and 0.15 mg/mL S. cerevisiae PDC. The reaction mixture was preincubated at 37 °C with the inhibitor for 60 min, and then the reaction was initiated by adding pyruvate to a final concentration of 70 mM. […] Specific activity was calculated using the molar extinction coefficient of DCPIP, 21 mM^–1 cm^–1.[28] The IC50 values were calculated from nonlinear regression curve fitting using GraphPad Prism.
as §1, §2
S. cerevisiae PDC inhibitory activity assay. S. cerevisiae PDC was purchased from Sigma. S. cerevisiae PDC activity was determined by monitoring DCPIP reduction at 600 nm using a microplate reader (CLARIOstar) and conducted as described3 with some modifications. The percentage inhibition of compounds against S. cerevisiae PDC was assayed at 750 μM. The reaction buffer (50 mM KH 2PO4 and 1 mM MgCl2, pH 7) contained TPP at specified concentrations, 0.27 mM DCPIP, and 0.15 mg/ml S. cerevisiae PDC. […]
calculated from non-linear regression curve fitting using GraphPad Prism. […]

T3 sequence (P0AFG3 whole entry): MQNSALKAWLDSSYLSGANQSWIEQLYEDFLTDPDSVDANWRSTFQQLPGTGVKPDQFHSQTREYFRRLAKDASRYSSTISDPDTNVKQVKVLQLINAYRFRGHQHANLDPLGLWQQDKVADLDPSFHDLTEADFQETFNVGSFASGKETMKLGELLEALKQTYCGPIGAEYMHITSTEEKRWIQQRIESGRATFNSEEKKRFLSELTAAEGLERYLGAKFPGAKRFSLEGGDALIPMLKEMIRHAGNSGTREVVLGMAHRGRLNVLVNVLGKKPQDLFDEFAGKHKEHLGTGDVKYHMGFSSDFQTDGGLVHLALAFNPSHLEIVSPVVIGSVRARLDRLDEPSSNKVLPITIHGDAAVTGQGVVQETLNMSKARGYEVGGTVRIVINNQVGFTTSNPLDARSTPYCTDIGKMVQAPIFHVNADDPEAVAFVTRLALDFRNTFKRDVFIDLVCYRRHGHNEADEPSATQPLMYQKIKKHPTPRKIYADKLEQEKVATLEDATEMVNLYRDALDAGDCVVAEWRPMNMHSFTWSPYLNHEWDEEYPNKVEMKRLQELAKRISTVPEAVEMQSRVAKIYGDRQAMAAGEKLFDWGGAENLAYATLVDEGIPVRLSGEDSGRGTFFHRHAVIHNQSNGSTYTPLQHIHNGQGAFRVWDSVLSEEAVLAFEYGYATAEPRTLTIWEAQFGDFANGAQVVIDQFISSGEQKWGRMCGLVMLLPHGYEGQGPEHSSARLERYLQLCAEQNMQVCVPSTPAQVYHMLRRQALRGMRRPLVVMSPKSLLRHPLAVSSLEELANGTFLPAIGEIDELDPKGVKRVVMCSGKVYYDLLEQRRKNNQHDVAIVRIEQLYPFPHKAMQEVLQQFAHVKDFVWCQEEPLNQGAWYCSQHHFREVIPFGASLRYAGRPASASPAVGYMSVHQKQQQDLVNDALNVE
Chain of A. viridans PO (A9X9K8 entry or part of it): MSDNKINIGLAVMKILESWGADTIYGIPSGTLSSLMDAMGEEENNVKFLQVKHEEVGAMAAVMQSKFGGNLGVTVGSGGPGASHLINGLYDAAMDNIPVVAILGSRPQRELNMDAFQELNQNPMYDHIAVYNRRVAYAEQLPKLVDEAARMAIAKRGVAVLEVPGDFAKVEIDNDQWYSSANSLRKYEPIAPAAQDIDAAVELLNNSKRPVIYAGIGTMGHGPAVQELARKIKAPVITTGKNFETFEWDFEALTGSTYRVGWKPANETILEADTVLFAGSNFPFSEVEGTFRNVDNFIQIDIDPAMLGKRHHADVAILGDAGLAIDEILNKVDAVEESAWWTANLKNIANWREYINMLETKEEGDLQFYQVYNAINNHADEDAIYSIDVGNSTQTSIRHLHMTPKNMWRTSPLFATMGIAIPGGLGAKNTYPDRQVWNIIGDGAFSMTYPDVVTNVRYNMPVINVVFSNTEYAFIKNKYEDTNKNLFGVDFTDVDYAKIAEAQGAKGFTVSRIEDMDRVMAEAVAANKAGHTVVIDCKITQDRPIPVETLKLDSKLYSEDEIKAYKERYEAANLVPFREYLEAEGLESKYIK

Take `Cc1ncc(Cn2cc(CCOP(=O)(O)O)nn2)c(N)n1` [compound 5]: the “membrane permeability in PAMPA (in words)” value in series [1] is given as “membrane-impermeable”. Also, in series [1] (PAMPA), the Papp at 10 h, 500 µM was 0.398 ×10⁻⁶ cm/s. Further, the “Fa (fraction absorbed)” value in [1] is 2%. Further, the IC50 in series [2] is 6.6 µM; in series [3] it was 1300 µM; in [4], 348 µM; in series [5], 170 µM.

`CCC(CC)COC(=O)[C@H](C)NP(=O)(OCCc1cn(Cc2cnc(C)nc2N)nn1)Oc1ccccc1` (stereo partly drawn) [compound 12]: the inhibition entry in [6] (compound at 10 μM, assay conditions of previous study) was “no inhibition”; in [6] (compound at 100 μM), “no inhibition”; in series [7], “no inhibition”. For the same molecule, the “membrane permeability in PAMPA (in words)” value in series [1] (PAMPA) is given as “membrane-permeable”. For the same molecule, the Papp at 10 h, 500 µM in [1] (PAMPA) is 7.94 ×10⁻⁶ cm/s. Further, the “Fa (fraction absorbed)” value in series [1] came to 48%. Further, the “solubility under the enzyme assay conditions” value was “insufficiently soluble” in [8] (OGDH E1 assay, 300 μM); “not sufficiently soluble” in series [8] (PDC assay conditions, 1300 μM); “not sufficiently soluble” in series [8] (PO assay conditions, 400 μM). Moreover, the solubility in series [8] (PBS with 5% DMSO, aqueous with cosolvent or surfactant or cyclodextrin, kinetic from dmso stock, read-out: solubility in aqueous environments) was below 300 µM.

B1: S. cerevisiae PDC (Saccharomyces cerevisiae S288C) (protein)
chain: T2 sequence (P06169 2-563 limits assumed)
notes: purchased Sigma
For the molecule B1, the Km in series [9] stood at 15 µM.

The IC50 is the concentration at which inhibition is half-maximal. A word on the solubility: it is how much of the substance goes into solution per volume. The Km is the substrate concentration at which the rate is half of its maximum.
